The source of these data is publication PMC8959600 (eLife, 2022).

≈ marks a conversion by molar mass, not a printed value.

What is called MIC is the lowest concentration that inhibits growth of the organism. By IC90 is commonly meant the point of the concentration-response curve where the effect stands at 90%. Low readings indicate an effect from little substance, high ones a need for much substance.

In data set [1] the test system is Shigella flexneri 2457T. Put plainly: Resazurin growth inhibition, dose response (IC50/IC90) in Müller Hinton medium. It is filed as cell-based. As for the experimental part:
We developed a high-throughput screening (HTS) method to identify compounds that could inhibit the growth of Shigella flexneri 2457T in Müller Hinton medium (Sigma Aldrich, UK). We adapted a resazurin reduction protocol from Franzblau et al. as surrogate readout for bacterial viability because it provided a stable signal, a low interference level, and was cost effective ([Franzblau et al., 1998]). Prior to the day of experimentation, one colony was used to inoculate 50 mL Mueller Hinton medium, and the culture was incubated overnight at 37 °C. The next day, 500 μL of the bacterial culture were inoculated into 50 mL fresh Mueller Hinton medium and bacterial growth was measured periodically at 600 nm. When the culture reached OD = 0.4–0.6, the inoculum was diluted to 1 × 10^6 CFU/mL; this bacterial suspension was added to compound pre-dispensed plates for screening.
The assay was performed in 1536-well polystyrene assay plates (HiBase, μClear, Greiner Bio‐One) and used to screen ~1.7 million compounds from (a) GSK naïve chemical diversity, (b) GSK antibacterial programs, and (c) marketed antimicrobial agents. All commercially available chemicals were purchased from either Sigma Aldrich, UK, AK Scientific, or Fischer Chemicals. The GSK compound screening set was sub-selected from the 8 million compound GSK collection using the principles described by Harper and co-workers ([Harper et al., 2004]). The process to generate the structural filters to remove compounds bearing undesirable/reactive chemotypes and/or non-developable physicochemical properties has been described previously by [Chakravorty et al., 2018]. […]. The set of marketed antibacterial agents included most commercial antimicrobial agents.
For screening, plates were prepared by dispensing 50 nl of compound from master plates at 1 mM in each well using a LabCyte Echo system. The final assay volume was 5 μl and the final compound concentration was 10 µM. The 11th and 12th columns were growth controls containing 50 nL of DMSO. The 34th and 35th columns contained 50 nL of Moxifloxacin at 20 μM as negative growth controls. Five µl of bacterial inoculum was dispensed into compound pre-dispensed plates using a Multidrop Combi dispenser (Thermo Scientific). Plates were agitated for 10 s to ensure mixing and incubated at 37 °C overnight (16–17 hr). Following overnight culture, 2 µl resazurin solution (Resazurin tablets for milk testing, BDH) was added to each well and incubated at room temperature in the dark for 3 hr. Fluorescence intensity was measured using an Envision plate reader (PerkinElmer). […] Data were analysed using Base software and statistical cut-off analysis was used for ‘hit’ selection following a standard GSK protocol. To calculate the statistical cut-off, percentage growth inhibition was calculated per well according to the plate controls, these values were aggregated to calculate the robust mean and standard deviation (SD) of the distribution. The robust mean was calculated starting from the median and the MAD of the distribution with an iterative process that aimed to remove outliers. Once the mean and SD were calculated, all compounds above mean + 3 SD were selected as primary hits.
After the initial screen, we generated fresh samples of the primary compound hits and tested them in duplicate against S. flexneri 2457T at 10 μM to confirm activity. The confirmed hit list was narrowed by applying the following filters: a 30% cut-off value, absence of undesirable structural features (e.g. electrophiles, peroxides, and Michael acceptors) and reduced physicochemical risk (maximum five aromatic rings and PFI <8)([Leeson and Young, 2015]). […].

The subject of data set [2] is S. sonnei 02–1181. As to the kind of experiment: Solid medium test at 10 µM and dose-response MIC against MDR clinical isolate. The format is cell-based, Shigella sonnei. As for the experimental part:
The confirmed hit list was narrowed by applying the following filters: a 30% cut-off value, absence of undesirable structural features (e.g. electrophiles, peroxides, and Michael acceptors) and reduced physicochemical risk (maximum five aromatic rings and PFI <8)([Leeson and Young, 2015]). […] Briefly, the selected bacteria were cultured on the Luria-Bertani agar overnight at 37 °C (Campylobacter isolates were grown in 2.5% Laked Horse Blood cation-adjusted Mueller Hinton medium (CAMHB, Sigma Aldrich) and incubated in microaerophilic conditions (10% CO2, 5% O2 and 85% N2) at 42 °C); colonies were added to sterile PBS to form 0.5 McFarland solutions. All chemical testing was performed at an initial concentration of 10 μM. Bacterial suspensions were evenly spread on Mueller-Hinton agar by sterile cotton swabs (Medical Wire – MWE). […] Plates were incubated overnight at 37 °C. The activity of the chemical was recorded as being active (yes) or non-active (no) for each of the tested chemicals.
MICs were evaluated using the micro dilution assay in Müller Hinton broth using 1 mM chemical stock solutions, and a final concentration of 5 × 10^5 CFU/mL bacteria. Twofold serial dilutions were prepared in 96-well plates at concentration ranging from 1 μM to 7.8 nM. 100 μL bacteria were added and incubated at 37 °C overnight; 10 μl of each solution was dropped onto Luria-Bertani agar and incubated overnight at 37 °C for the detection of bacterial growth. Results were interpreted as minimal concentration necessary to inhibit growth.

Data set [3] can be described thus: Intestinal distribution by MALDI imaging in mice. It is filed as in vivo. Particulars: 60 min after oral pro-drug. As for the experimental part:
One animal was euthanised at 0.25, 0.5, 1, and 4 hr respectively and 2.5–3 cm sections of the intestine (duodenum, jejunum, ileum, caecum, and colon) were collected and frozen at –80 °C. For quantitative LCMS analysis of intestine homogenate, samples were thawed at ambient temperature, mixed with water (1:1) and homogenised by turrax (10 sec). Subsequently, 20 µL of homogenate were mixed with 200 µl of ACN: MeOH (80:20) and filtered using 0.2 µm filter plate (Whatman). LCMS analysis was performed as described in previous section. For MALDI imaging, 50 mm of the central part of each intestinal section were cut and mounted in a sample disc on dry ice with a solution of 1% methylcellulose (Sigma Aldrich, UK). Next, tissue sections of 12 µm (sagital sections) were obtained using a cryostat (Leica CM3600; Leica Microsystems Inc, Wetzlar, Germany) at –20 °C and collected in conductive-coated slides for MALDI Imaging (Bruker Daltonic). After the ‘MALDI’ section was obtained a consecutive section for histology was taken. Prior to matrix coating, samples for MALDI were optical scanned in a PathScanner. The matrix deposition was conducted in a sprayer ImagePrep System (Bruker Daltonic) which uses vibrational vaporisation technology. As matrix solution α-CHCA (α-Cyano-4-hydroxycinnamic acid (Sigma Aldrich) dissolved in 70:30 methanol/water (v/v) containing 0.2% TFA at 7 mg/mL was used. MALDI MSI data were obtained using a Bruker UltrafleXtream MALDI TOF/TOF (Bruker Daltonic, Germany)).
Both compounds were analysed in positive mode using a LIFT method. For Tebipenem, parent compound was 384.32 and the detection mass window between m/z 0–400. 298.164 were the most intensive fragment. […] We used a laser shut at 85% power with a 50 μm step size, 100 times at raster spot in random wak mode. FlexImaging 4.1(bruker Daltoninc, Germany) were used for the data visualisation. […]
MALDI Imaging is not a quantitative technique, therefore, the colour scale of images is relative to the maximum intensity (100 corresponds with the maximal signa in each slide). […]

As for `C[C@@H](O)[C@H]1C(=O)N2C(C(=O)O)=C(SC3CN(C4=NCCS4)C3)[C@H](C)[C@H]12` [Tebipenem], in data set [1] (2457T, read-out: estimated MIC of S. flexneri 2457T), the minimal inhibitory concentration (MIC) was 0.39 µM. In data set [1] (ATCC700930), this compound returned an IC90 of 0.01 µg/mL (≈ 0.0261 µM). The bactericidal activity entry in data set [2] is “greatest bactericidal activity”. Besides, the “MALDI detection in the intestinal lumen” value in data set [3] is “could be detected in the lumen and enterocytes throughout the gut”.
